Laboratory results as given in ChEMBL document CHEMBL1157539, “Thousands of chemical starting points for antimalarial lead identification” (Nature, 2010).

Test system: Plasmodium falciparum
Assay: GSK_TCMDC: Inhibition of Plasmodium falciparum 3D7 in whole erythrocytes, using parasite LDH activity as an index of growth.
Type: functional, organism-based
Details: Plasmodium falciparum, 3D7

| Structure (SMILES) | XC50 [µM] |
| --- | --- |
| COc1ccc(CCN(C)CCOc2ccc(NC(=O)c3cccc4cc5ccccc5nc34)cc2)cc1OC | 0.68 |
| O=[N+]([O-])c1cccc(NC(=S)N2CCCN(Cc3ccc(F)cc3F)CC2)c1 | 0.831 |
| O=C(NCCCCN1CCC(c2ccc3c(c2OC(=O)c2ccc(NC(=O)c4ccc(Cl)cc4)cc2)CCCC3)CC1)c1ccc(NC(=O)c2ccc(Cl)cc2)cc1 | 0.203 |
| COc1nc2c(N3CCN(CCNCc4ccc5c(n4)NC(=O)CS5)CC3)ccnc2cc1F | 0.713 |
| C=CCOC(=O)N1CCC(CNCc2ccc(-c3cccc(-c4nc5cccc(C)c5[nH]4)c3)cc2)C1 (configuration not stated) | 0.118 |
| COCCNCC(O)Cn1c2ccc(Cl)cc2c2cc(Cl)ccc21 (configuration not stated) | 0.052 |
| CC1CNC(c2ccc(NC(=O)c3ccc(C(=O)Nc4ccc(C5=NC(C)CN5)cc4)cc3)cc2)=N1 (configuration not stated) | 0.0336 |
| COc1c(C2CCN(CCN3CCC(CNC(=O)c4ccc(-c5ccc(C#N)cc5)cc4)CC3)CC2)ccc2c1CCCC2 | 0.455 |
| CC(C)C(=O)ONC1=NC(C)(C)N(OCCCOc2cc(Cl)c(Cl)cc2Cl)C(NOC(=O)C(C)C)=N1 | 0.0266 |
| CCc1cc(NC(=O)Nc2ccnc3ccccc23)ccc1OC | 0.138 |
| CN1CCC(N2CCN(Cc3ccc(-c4ccc(-c5nc6cc(F)ccc6[nH]5)s4)cc3)CC2)CC1 | 0.153 |
| COc1ccc2nccc([C@@H](O)CN3CCC(NCc4cc5ccccc5nn4)CC3)c2c1 | 1.2 |
| CCN(CC)CCN(Cc1ccc(-c2ccc(C(F)(F)F)cc2)cc1)C(=O)Cn1cc(CCCCc2cccc(F)c2F)c(=O)c2ccccc21 | 0.883 |
| CN1CC=C(c2c[nH]c3ccc(Oc4ccccc4)cc23)CC1 | 0.253 |
| Cc1cc(Nc2ccc(C)c(Cl)c2)n2ncnc2n1 | 0.552 |
| COc1ccccc1/C=C/C(=O)N(C)C1CCN(CCCCCNC(=O)/C=C/c2ccc(Cl)c(Cl)c2)CC1 | 0.438 |
| O=C(Nc1ccc(Cl)c(Cl)c1)Nc1ccccc1N1CCNCC1 | 0.709 |
| Oc1ccc(CCCNc2nc(NCc3ccccc3-c3ccccc3)nc(NC3CCNCC3)n2)cc1 | 0.864 |
| Cc1ccc2[nH]c3ccccc3c(=O)c2c1 | 0.863 |
| COc1ccc2nccc([C@@H](O)CN3CCC(NC(=O)/C=C/c4ccc5cc(C)[nH]c5c4)CC3)c2c1 | 0.728 |
| CC(=O)CC(=O)N1CCN(c2ccccc2)CC1 | 1.06 |
| CC(C)c1ccc(O)cc1Nc1ccnc2ccc(C(F)(F)F)cc12 | 0.675 |
| Clc1ccc2c(NCCc3ccccc3)ccnc2c1 | 0.488 |
| O=c1cc(NCCCNCc2cc(Cl)c(Cl)cc2Cl)[nH]c2ccccc12 | 0.966 |

| Structure (SMILES) | XC50 [µM] |
| --- | --- |
| CC(Cl)=CCc1c(C)nc2c(ccc3ccccc32)c1O | 0.198 |
| Cc1ccc2cc(NCCCCCCCCON3C(N)=NC(N)=NC34CCCCC4)ccc2n1 | 0.163 |
| CC1(C)CCC(=Cc2ccc(Cl)cc2)CC1(O)Cn1ccnc1 (configuration not stated) | 0.743 |
| Cc1nc(N)nc(N)c1OCCCCCCOc1ccccc1 | 0.235 |
| Cc1ccc(-c2cc(C(=O)Nc3ccc(S(=O)(=O)N4CCCCC4)cc3)[nH]n2)c(O)c1 | 1.77 |
| Cc1ccc(Cn2ncc(N3CCC(N)CC3)c(Cl)c2=O)cc1NC(=O)Nc1ccc(-c2ccccc2)cc1 | 0.917 |
| Cc1cc(N)nc2ccc(-c3cccc(CN)c3)cc12 | 0.707 |
| O=C(NC1CCC(CN2CCC(c3c[nH]c4ccccc34)CC2)CC1)c1csc(-c2cccc(Cl)c2Cl)n1 (configuration not stated) | 1.73 |
| CC1(C)NC(N)=NC(=N)N1OCCCO | 0.221 |
| FC(F)(F)c1ccc2[nH]c(-c3cccc(-c4ccc(CNCC5CCCO5)cc4)c3)nc2c1 (configuration not stated) | 0.277 |
| CN(CCNCc1ccc(-c2cccc(-c3nc4ccccc4[nH]3)c2)cc1)S(C)(=O)=O | 0.945 |
| O=C(Nc1cccc(-c2cccc(-c3nc4ccccc4[nH]3)c2)c1)Nc1ccc2c(c1)OCO2 | 0.167 |
| CC(=O)c1ccc2c(c1)C(NC(=O)c1cccc(Cl)c1Cl)C(CO)C(C)(C)O2 (configuration not stated) | 0.687 |
| COc1cccc2c(NN=Cc3ccc(Cl)cc3)ccnc12 | 0.814 |
| C=Cc1cc(NC(=O)N2CCc3cc(OC)c(C(F)(F)F)cc32)cc(-c2cccnc2)c1 | 0.702 |
| CC(=O)C1=NN(c2ccc(C)cc2)C(c2cccs2)N1c1ccccc1 (configuration not stated) | 0.338 |
| COc1ccc(Nc2c3ccc(Cl)cc3nc3ccc(OC)cc23)cc1 | 0.441 |
| OC(c1cccc(OCc2ccccc2)c1)C1CN(CCc2ccccc2)CCC1(O)c1ccccc1 (configuration not stated) | 0.218 |
| CC(C)(CN)c1nc(-c2ccc(Br)c(O)c2)c(-c2ccncc2)[nH]1 | 0.965 |
| COc1cc2nc(SCC(C)C)n(CCCn3ccnc3)c(=N)c2cc1OC | 0.61 |
| COc1cc(C(=O)Nc2cccc(-c3cn4cccc(C)c4n3)c2)cc(OC)c1OC | 0.697 |
| O=C(NCC(CCCN1CCC(c2c[nH]c3ccccc23)CC1)c1ccccc1)Nc1ccc(Cl)c(Cl)c1 (configuration not stated) | 0.787 |
| Cc1cc(NC(=O)Nc2cccc(N(C)C)c2)c2ccccc2n1 | 0.201 |
| CC(C)NCc1cccc(-c2cccc(NC(=O)c3ccc(C#N)cc3)c2)c1 | 0.646 |

| Structure (SMILES) | XC50 [µM] |
| --- | --- |
| COc1ccc2nccc(N3CCC(CCNCc4ccc5c(n4)NC(=O)CO5)CC3)c2n1 | 0.998 |
| COc1ccc2nccc([C@@H](O)CN3CCC(NC(=O)c4cc5c(F)cc(F)cc5[nH]4)CC3)c2c1 | 0.245 |
| CCc1c[nH]c2c(N3CCCCS3(=O)=O)cc(C(=O)N[C@@H](Cc3ccccc3)[C@H](O)CNCc3cccc(OC)c3)cc12 | 0.909 |
| Cc1cccc2nc(-c3ccc(-c4ccc(NC(=O)Nc5ccc(F)c(F)c5F)cc4)cc3)[nH]c12 | 0.273 |
| CC1(C)NC(N)=NC(=N)N1OCc1cc(Cl)cc2c1OCOC2 | 0.0032 |
| OC(CNC1CCCCC1)Cn1c2ccccc2c2ccccc21 (configuration not stated) | 0.991 |
| O=C(Nc1ccc(OC2CCN(Cc3ccc(F)cc3)CC2)c(Cl)c1)c1ccccc1 | 0.794 |
| O=C(c1cccs1)N1CCN(c2ccc([N+](=O)[O-])c(NC3CC3)c2)CC1 | 0.767 |
| c1ccc2c(NCCCCCCNc3c4c(nc5ccccc35)CCCC4)c3c(nc2c1)CCCC3 | 0.196 |
| COc1cc2nccc(Nc3ccc4c(cnn4Cc4ccccc4F)c3)c2cc1OC | 0.4 |
| COc1ccccc1C1CCN(C2CCC(NC(=O)c3ccc4[nH]c(-c5ccc(C)cc5)nc4c3)CC2)CC1 (configuration not stated) | 0.308 |
| O=C1c2ccccc2-n2c1nc1ccccc1c2=O [TRYPTANTHRIN] | 0.856 |
| CN(C)c1ccc(-c2csc(C(=O)NC3CCCCN(CCC(C)(C)C)C3)c2)cc1 (configuration not stated) | 1.05 |
| Nc1nc(N)c2c(ccc3nn(Cc4cccnc4)cc32)n1 | 0.355 |
| O=C(NCCCCCN1CCC(c2c[nH]c3ccccc23)CC1)Nc1cccc(C(F)(F)F)c1 | 1 |
| COc1cc(C(=O)N2CCOC(CCN3CCC4c5ccccc5CC43)(c3ccc(Cl)c(Cl)c3)C2)cc(OC)c1OC (configuration not stated) | 0.529 |
| CC(Nc1cc(-c2ccccn2)nc(-c2ccccn2)n1)c1ccccc1 (configuration not stated) | 0.453 |
| O=C(Nc1cccc(-c2ccc(-c3nc4cc(F)ccc4[nH]3)cc2)c1)Nc1ccc(Cl)c(Cl)c1 | 0.139 |
| Cc1cc(OCc2ccncc2)cc2c1C(=O)CC(C)(C)O2 | 0.183 |
| Oc1ccc(CCNCc2ccc(OCc3ccccc3)c(OCc3ccccc3)c2)cc1 | 1.51 |
| Cc1nc(-c2ccc(-c3ccc(C(=O)Nc4ccc(Cl)c(N5CCN(C)CC5)c4)cc3)c(C)c2)no1 | 0.743 |
| N#Cc1ccc2c(c1)CCN(CCC1CCC(NC(=O)/C=C/c3ccc4ccccc4c3)CC1)CC2 (configuration not stated) | 0.724 |
| Cc1ccc2[nH]c(-c3cc(-c4cccc(CCN5CCOCC5)c4)cnc3N)nc2c1 | 0.17 |
| O=c1nc(NCCCCCN2CCC(c3c[nH]c4ccccc34)CC2)[nH]cc1Cc1ccc(Cl)c(Cl)c1 | 0.969 |
